One data set deals with T1, PARP (Mus musculus, UniProt P11103).
T1 construct: endogenous in cells; host or cells: L1210 murine leukaemia cells, permeabilised by hypotonic buffer and cold shock
In words: PARP inhibition assay ([32P]-NAD incorporation into TCA-precipitated poly(ADP-ribose) in permeabilised L1210 cells, oligonucleotide activated). As to conditions: read-out: % Inhibition (PARP). In kind it is biochemical, L1210 murine leukaemia cells. The text has this: In principle, the PARP assay used relies upon activating endogenous PARP (as hereinafter described) in cells containing exogenous [^32 P]-NAD^+ introduced therein by suspending the cells in a solution of [^32 P]-NAD^+ to which they have been rendered permeable in an initial pretreatment step. The poly(ADP-ribose) which is then synthesised by the enzyme can be precipitated by trichloracetic acid (TCA) and the amount of radio-labelled ^32 p incorporated therein measured, e.g. using a scintillation counter, to give a measure of the activity of the PARP under the particular conditions of the experiment. By repeating the experiment following the same procedure, and under the same conditions, in the presence of each compound to be tested the reduction in enzyme activity, representative of the inhibitory effect of the test compound, can then be ascertained from the reduction, if any, of the amount of [^32 P] measured in the TCA precipitated poly(ADP-ribose).
Thus, with a range of different compounds a set of comparative values for inhibitory activity can be obtained.
In practice, L1210 murine leukaemia cells were used as the source of the PARP enzyme after being rendered permeable to exogenous [^32 P]NAD by exposure to hypotonic buffer and cold shock. […] This oligonucleotide sequence snaps back on itself to form a double-stranded molecule with a single blunt end and provides an effective substrate for activation of PARP.
The experimental protocol adopted, in which a synthetic oligonucleotide as mentioned above is introduced as a specific activator of PARP, discriminates between PARP and other mono-ADP-ribosyltransferases in the cells.
The oligonucleotide having the palindromic sequence […], synthesised by conventional means, was vacuum dried and stored as pellets in a freezer. Before use, it was made up to 200 μg/ml in 10 mM Tris/HCl, pH 7.8, with each pellet being dissolved completely in […] of buffer. The solution was then heated to 60° C. in a water bath for 15 minutes, and allowed to cool slowly to ensure correct reannealing. After adding 9.5 ml of buffer, the concentration was checked by measuring the optical density of a diluted sample at 260 nm. The main solution was then diluted to a concentration of 200 μg/ml and stored in 500 μl aliquots in a freezer, ready for use.
The L1210 cells used as the source of the PARP enzyme were maintained as a suspension culture in RPMI medium+10% foetal bovine serum+glutamine and antibiotics (penicillin and streptomycin). HEPES and sodium bicarbonate were also added, and the cells were seeded in 100 ml of medium such that there would be a concentration of approximately 8×10^5 /ml at the time of carrying out an assay.
The solubility of the compound was then checked by adding a quantity of the DMSO solution to a quantity of the isotonic buffer, in the required final proportions that were to be used in carrying out the assay, and after an interval the solution was examined under a microscope for any signs of crystals forming.
A desired quantity of the cells, ascertained by counting with a haemocytometer, was then centrifuged (1500 rpm in a "Europa" model 24M centrifuge for 5 minutes), the supernatant removed, and the pellets obtained were resuspended in 20 ml Dul A at 4° C. before centrifuging again at 1500 rpm and 4° C. After again removing the supernatant, the cells were resuspended at a concentration of 3×10^7 cells/ml in ice cold hypotonic buffer and left for 30 minutes on ice. Nine volumes were then added of ice cold isotonic buffer, and the cells, now rendered permeable to exogenous NAD^+, were then used within the next hour for carrying out an assay.

The subject of data set [1] is L1210 cells. As to the kind of experiment: growth inhibition assay, alone or with temozolomide. It counts as cell-based, murine. As to conditions: Mus musculus, L1210, 48 h. As for the experimental part:
(§1) Again using cultures of the murine leukaemia L1210 cell line, growth inhibition experiments were carried out to assess the cytostatic effects of the compounds and clonogenic survival assays were performed to assess cytotoxicity, especially in relation to use of the compounds in conjunction with DNA damaging cytotoxic agents such as cytotoxic antitumour drugs or high energy radiation.
At this time one set of replicates would be counted using a Coulter counter (N0), and 48 hours later the remaining samples would be counted (N1). The percentage (%) growth inhibition of drug-treated samples could then be estimated. In drug combination experiments, where evidence of synergistic effects on cell growth or clonogenicity was being sought, a single, fixed concentration of a cytotoxic drug sample, e.g. temozolomide, would be taken as the control value.

A further data set in a line: in vitro. As to conditions: mouse, l1210 cells. As for the experimental part: as §1
Data set [2] relates to L1210 cells. As to the kind of experiment: repair of potentially lethal damage (PLD) after gamma ray irradiation. In kind it is cell-based, murine. As to conditions: 8 Gray gamma ray; 10 mM 3AB or 200 μM NU1025. As for the experimental part: Repair of potentially lethal damage (PLD) occurs when cells are held in stationary-phase following initiation of PLD prior to allowing cell division to take place. In further typical experiments, L1210 cells were allowed to repair gamma ray PLD in the presence or absence of 3AB or NU1025 as follows. L1210 cells were maintained in culture until they had attained stationary phase (>10^6 cells/ml). They were diluted to […] in conditioned medium from stationary-phase cultures to prevent further cell division. Replicate 2 ml samples of cells in plastic bijoux were held on ice prior to and immediately following 8 Gray gamma ray irradiation. 1 ml of 3x final concentration of compounds 3AB or NU1025 made up in conditioned medium from stationary cultures was added (to give final concentrations of 10^6 cells/ml in 1% DMSO ±10 mM 3AB or 200 μM NU1025) and the cells were incubated at 37° C. for 0, 2 or 4 hours prior to resuspending in drug-free medium and seeding for colony formation. Unirradiated stationary phase cultures incubated at 37° C. for 0, 2 or 4 hours with 1% DMSO ±10 mM 3AB or 200 μM NU1025 were used as appropriate controls for determining relative cell survival. In the absence of PARP inhibitor cell survival increased with time allowed for PLD repair to take place. […]

In data set [3] the test system is L1210 cells. As to the kind of experiment: clonogenic survival assay with temozolomide (TM). As to conditions: for DEF10 (TM): 16 hours, ± S.E. As for the experimental part:
as §1
After 7-10 days colonies were stained with 0.5 mg/ml MTT and counted by eye on a gridded light box. Survival curves were plotted and typical DEF10 values obtained are hereinafter given in Table II (DEF10 being defined as the ratio of the concentration of TM that reduces survival to 10% divided by the concentration of TM that reduces survival to 10% in the presence of a fixed concentration of PARP inhibitor). Each DEF10 value in Table II represents the average ratio±S.E. (standard error) derived from the averaged 10% survival for TM alone (675±31 μM from 22 independent survival curves) divided by individual 10% survival values from at least 3 independent survival curves performed in the presence of a fixed concentration of inhibitor.
For NU1025 maximal potentiation of cytotoxicity was obtained by a concentration in the range of 50-100 μM, and was significant at doses as low as 10 μM.

Data set [4] concerns DNA strand breaks in L1210 cells. As to the kind of experiment: DNA strand break assay (alkaline elution). It counts as cell-based, murine. As to conditions: for effect on DNA strand break levels, compound alone: 24 hour incubation. As for the experimental part: as §1
All the compounds were tested for their ability to produce strand breaks when used alone.

The nature of data set [5]: half life of temozolomide in culture. In kind it is physicochemical.
The mark [6] stands for this setting: read-out: IC50 INHIBITOR + 100 μM TM (growth inhibition).
Where [7] appears, read: read-out: IC50 INHIBITOR ALONE (growth inhibition).

SMILES strings stand for the structures. A value given as a limit tells only on which side of the number the result lay.

T1 sequence (P11103 whole entry): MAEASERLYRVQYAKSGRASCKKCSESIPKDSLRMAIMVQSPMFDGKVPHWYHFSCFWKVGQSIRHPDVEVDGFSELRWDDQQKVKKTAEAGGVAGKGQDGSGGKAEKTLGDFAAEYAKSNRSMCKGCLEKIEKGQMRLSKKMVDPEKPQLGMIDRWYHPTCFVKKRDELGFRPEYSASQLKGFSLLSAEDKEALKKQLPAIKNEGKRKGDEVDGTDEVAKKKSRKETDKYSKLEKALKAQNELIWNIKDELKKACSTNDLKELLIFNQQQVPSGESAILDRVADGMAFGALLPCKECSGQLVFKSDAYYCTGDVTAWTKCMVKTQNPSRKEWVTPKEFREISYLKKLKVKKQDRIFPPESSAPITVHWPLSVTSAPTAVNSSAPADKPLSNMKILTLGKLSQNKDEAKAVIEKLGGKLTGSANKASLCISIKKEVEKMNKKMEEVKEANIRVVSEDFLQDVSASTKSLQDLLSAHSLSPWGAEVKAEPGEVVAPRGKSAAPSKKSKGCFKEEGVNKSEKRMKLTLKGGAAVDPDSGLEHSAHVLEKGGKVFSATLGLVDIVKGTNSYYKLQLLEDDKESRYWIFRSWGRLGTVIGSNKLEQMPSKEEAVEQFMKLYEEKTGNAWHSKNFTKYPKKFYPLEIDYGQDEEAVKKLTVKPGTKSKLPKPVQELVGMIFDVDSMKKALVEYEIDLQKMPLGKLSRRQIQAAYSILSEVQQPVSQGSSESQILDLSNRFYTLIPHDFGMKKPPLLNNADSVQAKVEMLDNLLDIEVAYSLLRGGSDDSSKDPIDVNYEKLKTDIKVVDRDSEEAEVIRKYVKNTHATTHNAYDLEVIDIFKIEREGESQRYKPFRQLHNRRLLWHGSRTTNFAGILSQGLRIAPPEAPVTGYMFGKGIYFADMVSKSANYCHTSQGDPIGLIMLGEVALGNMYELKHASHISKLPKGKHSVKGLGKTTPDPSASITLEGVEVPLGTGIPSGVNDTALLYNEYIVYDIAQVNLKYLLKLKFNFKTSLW

As usually defined, the inhibition is how much of the control response was suppressed. The CC50 is the concentration that lowers cell viability or growth by half. Read a high CC50 as better tolerance by the cells. Take `NC(=O)c1cccc(N)c1` [3-aminobenzamide]: at PARP (10 μM), the inhibition at 10 µM was 36%. The inhibition at 30 µM on PARP (30 μM) worked out at 63%. For the same molecule, the inhibition at 100 µM at PARP (100 μM) was found to be 79%. For the same molecule, the results for the IC50 in the data set on L1210 cells [1] (setting [6]) and in the data set with L1210 cells [1] (setting [7]) were 2500 ± 100 µM and 6700 ± 200 µM, respectively. This molecule also yielded a CC50 at 24 h in “in vitro” of 14000 ± 1000 µM. The “effect on PLD repair in words” value in the data set with L1210 cells [2] is recorded as “blocked this repair”. In addition, the “DEF10 (TM)” value in the data set on L1210 cells [3] (1 mM inhibitor) was 2.4 ± 0.3; in the data set on L1210 cells [3] (5 mM inhibitor) it was 4.1 ± 0.4; in the data set with L1210 cells [3] (5 mM inhibitor, listed as 3AB) it was “about 4”. The “concentration above which strand breakage with TM increases significantly” value in data set [4] (150 μM TM, 1 hour) was greater than 5 mM. In addition, in data set [4] (20 mM), the “effect on DNA strand break levels, compound alone” value is reported as “no significant effect on DNA strand break levels”.

Take `Cc1nc2c(O)cccc2c(=O)[nH]1` [NU1025, 8-Hydroxy-2-methylquinazolin-4-[3H]-one]: the IC50 in the data set on L1210 cells [1] (setting [6]) was 40 µM; in the data set on L1210 cells [1] (setting [7]), 410 µM. Moreover, the half-maximal cytotoxic concentration (CC50) at 24 h in the data set “in vitro” is 1600 ± 100 µM. In addition, the “effect on PLD repair in words” value in the data set on L1210 cells [2] is on record as “blocked this repair”. For the same molecule, the figures for the “DEF10 (TM)” value in the data set on L1210 cells [3] (10 μM inhibitor) and in the data set on L1210 cells [3] (100 μM inhibitor) were 2.0 ± 0.2 and 5.1 ± 0.7, respectively. Besides, the “effect on DNA strand break levels, compound alone” value in data set [4] (1 mM) is on record as “no significant effect on DNA strand break levels”.

For orientation: half-life means how long it takes for the measured level to halve. As for `Cn1nnc2c(C(N)=O)ncn2c1=O` [TM, temozolomide], the IC50 in the data set with L1210 cells [1] (read-out: IC50 of TM alone (inhibition of cell growth)) is 361 ± 25 µM; in the data set on L1210 cells [3] (Mus musculus, L1210, 16 h, read-out: LD50 of TM alone), 251 ± 13 µM. For the same molecule, the IC90 in the data set on L1210 cells [3] (Mus musculus, L1210, 16 h, read-out: concentration of TM alone that reduces survival to 10%) is 675 ± 31 µM. In addition, the cytotoxicity at 150 µM with L1210 cells [3] (Mus musculus, L1210, read-out: reduction of survival) is roughly 30%. Also, the half-life in data set [5] was roughly 40 min. The minimal effective concentration in data set [4] (Mus musculus, L1210, 1 h, read-out: lowest TM level with detectable changes in DNA strand break levels) was determined as 150 µM. Moreover, in data set [4] (TM, 1 hour treatment), the “rate of elution (DNA strand breakage) in words” value is listed as “concentration-dependent increase in the rate of elution”.

The values above are taken from patent publication US5756510A, “Benzamide analogs useful as PARP (ADP-ribosyltransferase, ADPRT) DNA repair enzyme inhibitors” (Newcastle University Ventures Limited, priority 1994, dated 1998).
